From patent US12473339B2, “Acylated glucagon analogues” (Zealand Pharma A/S, priority 2013, dated 2025) come the findings set out here.

Data set [1] has as its target T1, endogenous glucagon receptor (Rattus norvegicus, UniProt P30082).
T1 construct: Agonistic activity of the test compounds on endogenous glucagon receptor; endogenous in cells; host or cells: primary rat hepatocytes
Put plainly: Agonistic activity on endogenous glucagon receptor (glycogen synthesis rate in primary rat hepatocytes). It counts as cell-based. The note with it: inhibition of glycogen synthesis rate (14C-glucose incorporation), 3 hours. As to the method:
Agonistic activity of the test compounds on endogenous glucagon receptor was determined by measuring their effect on rate of glycogen synthesis in primary rat hepatocytes. Upon activation of the glucagon receptor, an inhibition of the glycogen synthesis rate is expected. Rate of glycogen synthesis was determined by counting the amount of radioactively labeled glucose incorporated into the cellular glycogen stores in a defined period of time.
Primary rat hepatocytes were cultured at a density of 40,000 cells/well in a 24-well plate for 24 hours at 37° C. and 5% CO2.
Medium was discarded and the cells washed with PBS. 180 μL of KRBH-based buffer containing 0.1% BSA and glucose at a concentration of 22.5 mM was then added to the wells, followed by test compound and 40 μCi/ml D-[U14C] glucose (20 μL each). Incubation was continued for 3 hours.
At the end of the incubation period, the incubation buffer was aspirated and cells washed once with ice-cold PBS before lysis by incubation for 30 min at room temperature with 100 μL 1 mol/l NaOH.
Cell lysates were transferred to 96-well filter plates and glycogen precipitated by incubating the filter-plates for 120 min at 4° C. followed by washing the filter plates 4 times with ice-cold ethanol (70%). The resulting precipitates were filtered to dryness and the amount of incorporated ^14C-glucose determined by using a Topcount scintillation counter according to manufacturer's recommendations.
Wells with vehicle controls (0.1% (v/v) DMSO in KRBH buffer) were included as reference for non-inhibited glycogen synthesis (100% CTL). Wells without added D-[U^14C] glucose were included as controls for non-specific background signal (subtracted from all values). Endogenous glucagon peptide was used as a positive control.
All treatments were performed at least in duplicates.
Parameters calculated to describe both the potency as well as the agonistic activity of each test compound on the endogenous glucagon receptor are pEC50 and % CTL.
% CTL is determined by calculating the percentage of CPM/well in the presence of the test compound compared to the CPM/well of the vehicle control after subtracting the background CPM/well: [CPM/well(basal)−CPM/well(sample)]*100/[CPM/well(basal)−CPM/well(control)]
An activator of the glucagon receptor will result in an inhibition of the glycogen synthesis rate and will give % CTL values between 0% CTL (complete inhibition) and 100% CTL (no observable inhibition).
The resulting activity curves were plotted as absolute counts (unit: cpm/sample) over log (test compound concentration) and analyzed using the curve fitting program XLfit.
pEC50 (negative logarithmic value of EC50) reflects the potency of the test compound. […]

Data set [2] is described as follows: Pharmacokinetic parameters after intravenous administration to rats. The note with it: male, Han/Wistar, rat, in vivo, 20 nmol/kg. How it is done:
Pharmacokinetic parameters of the test compounds were determined after intravenous administration to Han/Wistar rats. The acylated GLP-1 analogue semaglutide was also tested for comparison purposes. Male Wistar rats were obtained from Charles River (Germany) weighing approximately 180 to 210 g at time of arrival at the test facility. Rats were caged in European standard rat cages type IV with light cycle of 12-hour dark and 12-hour light. During the study rats were housed in standard rat cages type III. Both diet Altromin 1324 (Altromin, Germany) and water was administered ad libitum during the whole experimental period. The animals were housed in the test facility for at least 4 days in order to assure proper acclimatization. The compounds were first dissolved in 0.1% aqueous ammonia to a nominal concentration of 2 mg/ml, and then diluted to the desired dosing strength (10 μM) in sterile PBS containing 25 mM phosphate buffer, pH 7.4. Intravenous injections corresponding to 20 nmol/kg were given via a lateral tail vein. Blood samples (200 μl) were collected from the periorbital plexus at time points 0.08, 0.25, 0.5, 1, 2, 4, 8, 24, 32 and 48 h post dosing into K3EDTA tubes and centrifuged for 5 minutes at 4° C. within 20 minutes of sampling. […] Individual plasma concentration-time profiles were analysed by a non-compartmental approach using ToxKin™ version 3.2 (Unilog IT Services), and the resulting pharmacokinetic parameters were determined.

In data set [3] the target is T2, human glucagon-like peptide 1 receptor (GLP-1R) (Homo sapiens, UniProt P43220).
T2 construct: expressed in transfected cells
T2 sequence (P43220 24-463): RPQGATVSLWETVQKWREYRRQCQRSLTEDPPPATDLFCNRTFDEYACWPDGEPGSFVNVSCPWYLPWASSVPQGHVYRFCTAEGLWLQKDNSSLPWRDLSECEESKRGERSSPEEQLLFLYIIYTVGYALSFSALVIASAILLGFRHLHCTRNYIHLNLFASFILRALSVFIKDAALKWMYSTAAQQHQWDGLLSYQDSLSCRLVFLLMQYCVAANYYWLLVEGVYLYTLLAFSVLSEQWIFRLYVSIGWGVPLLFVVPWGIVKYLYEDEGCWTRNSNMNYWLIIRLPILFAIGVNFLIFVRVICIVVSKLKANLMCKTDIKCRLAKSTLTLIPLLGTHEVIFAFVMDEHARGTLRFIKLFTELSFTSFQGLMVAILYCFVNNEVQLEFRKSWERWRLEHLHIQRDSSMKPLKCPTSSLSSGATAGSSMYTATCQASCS
Put plainly: GLP-1 receptor efficacy assay (cAMP AlphaScreen, CHO cells). Format: cell-based. The note with it: for Ratio GLP-1/Glucagon: EC50 [GLP-1R] / EC50 [Glucagon-R], human receptors in CHO-K1. The text has this:
(§1) The cDNA encoding either the human glucagon receptor (Glucagon-R) (primary accession number P47871) or the human glucagon-like peptide 1 receptor (GLP-1R) (primary accession number P43220) were synthesized and cloned into a mammalian expression vector containing a Zeocin resistance marker.
(§2) The mammalian expression vectors encoding the Glucagon-R or the GLP-1-R were transfected into Chinese hamster ovary (CHO) cells by the Attractene method. Stably expressing clones were obtained by Zeocin selection (250 μg/mL) upon limited dilution of cells resistant to the selection pressure. Glucagon-R and GLP-1-R cell clones expressing were picked, propagated and tested in the Glucagon-R and GLP-1-R efficacy assays as described below. One Glucagon-R expressing clone and one GLP-1-R expressing clone were chosen for compound profiling.
(§3) CHO cells expressing the human Glucagon-R, or human GLP-1-R were seeded 24 hours prior to the assay at 30,000 cells per well in 96-well microtiter plates in culture in 100 μl growth medium. On the day of analysis, growth medium was removed and the cells were washed once with 200 μl of assay buffer (Krebs-Ringer-buffer—KRBH). The buffer was removed and the cells were incubated for 15 min at room temperature in 10 μl KRBH (KRBH+10 mM HEPES, 5 mM NaHCO3, 0.1% (V/V) BSA) with 0.1 mM IBMX in deionized water containing increasing concentrations of test peptides. The reaction was stopped by the addition of lysis buffer (0.1% w/v BSA, 5 mM HEPES, 0.3% v/v Tween-20). After cell lysis for 10 min at room temperature, lysates were transferred to 384-well plates and 10 μl of acceptor/donorbead mixture as contained in the AlphaScreen™ cAMP Functional Assay Kit was added. After one hour of incubation at room temperature in the dark, the cAMP content was determined applying the AlphaScreen™ cAMP Functional Assay Kit from Perkin-Elmer according to manufacturer instructions. EC50 and relative efficacies compared to reference compounds (glucagon and GLP-1) were calculated applying computer aided curve fitting. The GLP-1/glucagon ratio is calculated as defined earlier.

The target of data set [4] is T3, human glucagon receptor (Glucagon-R) (Homo sapiens, UniProt P47871).
T3 construct: expressed in transfected cells
T3 sequence (P47871 26-477): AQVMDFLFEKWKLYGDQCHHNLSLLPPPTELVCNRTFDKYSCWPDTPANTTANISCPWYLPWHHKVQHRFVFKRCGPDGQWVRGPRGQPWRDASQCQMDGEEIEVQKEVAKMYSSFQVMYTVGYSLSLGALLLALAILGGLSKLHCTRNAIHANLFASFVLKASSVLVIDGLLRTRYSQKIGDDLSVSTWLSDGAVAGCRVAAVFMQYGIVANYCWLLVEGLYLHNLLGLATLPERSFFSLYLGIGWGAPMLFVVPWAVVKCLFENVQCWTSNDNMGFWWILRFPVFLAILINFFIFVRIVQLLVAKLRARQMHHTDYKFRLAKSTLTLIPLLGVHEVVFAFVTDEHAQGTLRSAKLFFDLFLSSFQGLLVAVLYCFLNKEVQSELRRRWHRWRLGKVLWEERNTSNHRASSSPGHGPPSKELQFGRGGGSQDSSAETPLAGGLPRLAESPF
In words: Glucagon receptor efficacy assay (cAMP AlphaScreen, CHO cells). Format: cell-based. The conditions noted are these: cAMP formation, CHO cells expressing human Glucagon-R, 15 min; read-out: EC50 hGCGR CHO-K1.
Text: as §1, §2, §3

*1 amine or outer side, *2 acyl side, *3 side chain or, on linkers, in order; H or OH if unused. Where a SMILES comes first, the peptide text is derived from it. Side-chain parts run from the residue outwards. [ ]: non-standard residue; d: D form. The star is where a group is joined. C18 diacid = O=C(O)CCCCCCCCCCCCCCCCC(=O)*; γGlu = O=C(O)[C@H](CCC(=O)[*:2])N[*:1]; Ac4c = NC1(C(=O)O)CCC1; AEEA = NCCOCCOCC(=O)O; Aib = CC(C)(N)C(=O)O

T1 sequence (P30082 27-485): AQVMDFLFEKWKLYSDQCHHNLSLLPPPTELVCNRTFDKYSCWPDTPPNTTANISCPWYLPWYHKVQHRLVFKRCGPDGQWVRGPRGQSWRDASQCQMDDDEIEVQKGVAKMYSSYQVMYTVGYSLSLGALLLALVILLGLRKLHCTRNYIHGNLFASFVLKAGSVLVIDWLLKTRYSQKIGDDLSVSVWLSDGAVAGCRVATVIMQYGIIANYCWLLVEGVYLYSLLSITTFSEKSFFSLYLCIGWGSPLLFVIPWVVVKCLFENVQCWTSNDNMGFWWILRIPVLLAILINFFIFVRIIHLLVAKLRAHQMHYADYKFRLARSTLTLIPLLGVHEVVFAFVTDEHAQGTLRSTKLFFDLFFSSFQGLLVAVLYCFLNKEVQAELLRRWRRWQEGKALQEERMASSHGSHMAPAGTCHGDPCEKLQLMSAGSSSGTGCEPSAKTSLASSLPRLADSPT

Compound `CC[C@H](C)[C@H](NC(=O)[C@H](Cc1ccccc1)NC(=O)[C@H](CC(=O)O)NC(=O)[C@H](CCCCN)NC(=O)[C@H](C)NC(=O)[C@H](C)NC(=O)[C@H](CCCNC(=N)N)NC(=O)[C@H](CCCCNC(=O)COCCOCCNC(=O)COCCOCCNC(=O)CC[C@H](NC(=O)CCCCCCCCCCCCCCCCC(=O)O)C(=O)O)NC(=O)[C@H](CC(=O)O)NC(=O)[C@H](CC(C)C)NC(=O)[C@H](Cc1ccc(O)cc1)NC(=O)[C@H](CCCCN)NC(=O)[C@H](CO)NC(=O)[C@H](Cc1ccc(O)cc1)NC(=O)[C@H](CC(=O)O)NC(=O)[C@H](CO)NC(=O)[C@@H](NC(=O)[C@H](Cc1ccccc1)NC(=O)[C@@H](NC(=O)CNC(=O)[C@H](CCC(N)=O)NC(=O)C(C)(C)NC(=O)[C@@H](N)Cc1c[nH]cn1)[C@@H](C)O)[C@@H](C)O)C(=O)N[C@@H](CCC(=O)O)C(=O)N[C@@H](Cc1c[nH]c2ccccc12)C(=O)N[C@@H](CC(C)C)C(=O)N[C@@H](CCC(=O)O)C(=O)N[C@@H](CO)C(=O)N[C@@H](C)C(N)=O` [Compound 2, H-H-Aib-QGTFTSDYSKYLD-K([17-carboxy-heptadecanoyl]-isoGlu-Peg3-Peg3)-RAAKDFIEWLESA-NH2] (H-H[Aib]QGTFTSDYSKYLDK([AEEA-AEEA-γGlu-C18 diacid])RAAKDFIEWLESA-NH2) displayed an EC50 in data set [1] of 0.11 nM. In data set [2], this compound had an MRT of 13.6 h, a clearance of 0.11 mL/min/kg and a half-life of 9.1 h. For the same compound, the “Ratio GLP-1/Glucagon” value in data set [3] is 13.54.
Take `CC[C@H](C)[C@H](NC(=O)[C@H](Cc1ccccc1)NC(=O)[C@H](CC(=O)O)NC(=O)[C@H](CCCCN)NC(=O)[C@H](C)NC(=O)[C@H](CCCNC(=N)N)NC(=O)[C@H](CCCCNC(=O)COCCOCCNC(=O)COCCOCCNC(=O)CC[C@H](NC(=O)CCCCCCCCCCCCCCCCC(=O)O)C(=O)O)NC(=O)[C@H](CCC(=O)O)NC(=O)[C@H](CC(=O)O)NC(=O)[C@H](CC(C)C)NC(=O)[C@H](Cc1ccc(O)cc1)NC(=O)[C@H](CCCCN)NC(=O)[C@H](CO)NC(=O)[C@H](Cc1ccc(O)cc1)NC(=O)[C@H](CC(=O)O)NC(=O)[C@H](CO)NC(=O)[C@@H](NC(=O)[C@H](Cc1ccccc1)NC(=O)[C@@H](NC(=O)CNC(=O)[C@H](Cc1c[nH]cn1)NC(=O)C1(NC(=O)[C@@H](N)Cc2c[nH]cn2)CCC1)[C@@H](C)O)[C@@H](C)O)C(=O)N[C@@H](CCC(=O)O)C(=O)N[C@@H](Cc1c[nH]c2ccccc12)C(=O)N[C@@H](CC(C)C)C(=O)N[C@@H](CCC(=O)O)C(=O)N[C@@H](CO)C(=O)N[C@@H](C)C(N)=O` [Compound 9, H-H-Ac4c-HGTFTSDYSKYLDE-K([17-carboxy-heptadecanoyl]-isoGlu-Peg3-Peg3)-RAKDFIEWLESA-NH2] (H-H[Ac4c]HGTFTSDYSKYLDEK([AEEA-AEEA-γGlu-C18 diacid])RAKDFIEWLESA-NH2): the EC50 in data set [1] came out at 0.11 nM; in data set [4], 0.07 nM; in data set [3] (cAMP formation, CHO cells expressing human GLP-1-R, 15 min, read-out: EC50 hGLP-1R CHO-K1), 0.97 nM. In data set [3], the “Ratio GLP-1/Glucagon” value is given as 13.86.
Take `CC[C@H](C)[C@H](NC(=O)[C@H](Cc1ccccc1)NC(=O)[C@H](CC(=O)O)NC(=O)[C@H](CCCCN)NC(=O)[C@H](C)NC(=O)[C@H](CCCNC(=N)N)NC(=O)[C@H](CCCNC(=N)N)NC(=O)[C@H](CCC(=O)O)NC(=O)[C@H](CC(=O)O)NC(=O)[C@H](CC(C)C)NC(=O)[C@H](Cc1ccc(O)cc1)NC(=O)[C@H](CCCCN)NC(=O)[C@H](CO)NC(=O)[C@H](Cc1ccc(O)cc1)NC(=O)[C@H](CC(=O)O)NC(=O)[C@H](CO)NC(=O)[C@@H](NC(=O)[C@H](Cc1ccccc1)NC(=O)[C@@H](NC(=O)CNC(=O)[C@H](CCC(N)=O)NC(=O)C1(NC(=O)[C@@H](N)Cc2c[nH]cn2)CCC1)[C@@H](C)O)[C@@H](C)O)C(=O)N[C@@H](CCCCNC(=O)CNC(=O)CNC(=O)[C@H](CO)NC(=O)CNC(=O)[C@H](CO)NC(=O)CNC(=O)CC[C@H](NC(=O)CCCCCCCCCCCCCCCCC(=O)O)C(=O)O)C(=O)N[C@@H](Cc1c[nH]c2ccccc12)C(=O)N[C@@H](CC(C)C)C(=O)N[C@@H](CCC(=O)O)C(=O)N[C@@H](CO)C(=O)N[C@@H](C)C(N)=O` [Compound 14]: the results for the EC50 in data set [1] and in data set [4] were 0.19 nM and 0.18 nM, respectively. Besides, the “Ratio GLP-1/Glucagon” value in data set [3] turned out to be 3.33.
With `CC[C@H](C)[C@H](NC(=O)[C@H](Cc1ccccc1)NC(=O)[C@H](CC(=O)O)NC(=O)[C@H](CCCCN)NC(=O)[C@H](C)NC(=O)[C@H](CCCNC(=N)N)NC(=O)[C@H](CCCNC(=N)N)NC(=O)[C@H](CCC(=O)O)NC(=O)[C@H](CC(=O)O)NC(=O)[C@H](CC(C)C)NC(=O)[C@H](Cc1ccc(O)cc1)NC(=O)[C@H](CCCCN)NC(=O)[C@H](CO)NC(=O)[C@H](Cc1ccc(O)cc1)NC(=O)[C@H](CC(=O)O)NC(=O)[C@H](CO)NC(=O)[C@@H](NC(=O)[C@H](Cc1ccccc1)NC(=O)[C@@H](NC(=O)CNC(=O)[C@H](CCC(N)=O)NC(=O)C1(NC(=O)[C@@H](N)Cc2c[nH]cn2)CCC1)[C@@H](C)O)[C@@H](C)O)C(=O)N[C@@H](CCC(=O)O)C(=O)N[C@@H](Cc1c[nH]c2ccccc12)C(=O)N[C@@H](CC(C)C)C(=O)N[C@@H](CCC(=O)O)C(=O)N[C@@H](CCCCNC(=O)CNC(=O)CNC(=O)[C@H](CO)NC(=O)CNC(=O)[C@H](CO)NC(=O)CNC(=O)CC[C@H](NC(=O)CCCCCCCCCCCCCCCCC(=O)O)C(=O)O)C(=O)N[C@@H](C)C(N)=O` [Compound 16], a half-maximal response in data set [1] (EC50) required 0.19 nM. For the same compound, in data set [3], the “Ratio GLP-1/Glucagon” value is given as 3.31.
